These results are taken from patent publication US9227935B2, “Piperidine/piperazine derivatives” (Janssen Pharmaceutica N.V., priority 2007, dated 2016).

In the assay the target is T1, human DGAT1 (Homo sapiens, UniProt O75907).
T1 construct: FLAG (N); made in house; host or cells: SF9 insect cells (baculovirus, pFastBac); total cell membranes used as the enzyme source
T1 sequence (O75907 1-488): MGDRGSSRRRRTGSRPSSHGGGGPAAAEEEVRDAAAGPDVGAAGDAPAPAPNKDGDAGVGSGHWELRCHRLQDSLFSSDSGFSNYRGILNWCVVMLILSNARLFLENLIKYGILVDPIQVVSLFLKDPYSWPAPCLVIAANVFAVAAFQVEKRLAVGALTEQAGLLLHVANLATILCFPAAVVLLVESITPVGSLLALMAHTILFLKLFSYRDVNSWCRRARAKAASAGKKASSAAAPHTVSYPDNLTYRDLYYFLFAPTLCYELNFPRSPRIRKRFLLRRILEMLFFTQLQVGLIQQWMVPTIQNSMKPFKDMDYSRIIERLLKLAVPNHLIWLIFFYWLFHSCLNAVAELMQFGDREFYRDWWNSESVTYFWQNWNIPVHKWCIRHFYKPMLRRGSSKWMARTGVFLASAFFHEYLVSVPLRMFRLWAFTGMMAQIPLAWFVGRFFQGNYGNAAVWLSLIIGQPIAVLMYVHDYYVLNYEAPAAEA
The experiment in a line: DGAT1 FlashPlate inhibition assay with DGAT1 membrane preparations. Type of assay: biochemical. The conditions noted are these: IC50 values expressed in M; pIC50 = -logIC50; inhibition of DGAT1 activity. An excerpt:
The inhibiting activity of the present compounds on DGAT1 activity was screened in a single well procedure assay using DGAT1 comprising membrane preparations and DGAT1 substrate comprising micelles and determining formed radio-active triacylglycerol coming in close proximity of a flashplate surface by radioluminescence.
Said assay is described in full detail in WO2006/067071, the content of which is incorporated herein by reference.
By DGAT1 activity is meant the transfer of coenzyme A activated fatty acids to the 3-position of 1,2-diacylglycerols, thus forming a triglyceride molecule, by enzyme DGAT1.
human DGAT1 (NM012079.2) was cloned into the pFastBac vector, containing translation start, a FLAG-tag at the N-terminus as described in literature and a viral Kozak sequence (AAX) preceding the ATG to improve expression in insect cells. Expression was done as described in literature (Cases, S., Smith, S. J., Zheng, Y., Myers H. M., Lear, S. R., Sande, E., Novak, S., Collins, C., Welch, C. B., Lusis, A. J., Erickson, S. K. and Farese, R. V. (1998) Proc. Natl. Acad. Sci. USA 95, 13018-13023.) using SF9 cells.
72 h transfected SF9 cells were collected by centrifugation (13000 rpm-15 min-4° C.) and lysed in 2×500 ml lysis buffer (0.1M Sucrose, 50 mM KCl, 40 mM KH2PO4, 30 mM EDTA pH 7.2. Cells were homogenized by cell disruptor. After centrifugation 1380 rpm-15 min-4° C. (SN discarded), pellet was resuspended in 500 ml lysis buffer and total cell membranes collected by ultracentrifugation at 34000 rpm (100 000 g) for 60 min (4° C.). The collected membranes were resuspended in lysis buffer, divided in aliquots and stored with 10% glycerol at −80° C. until use.
Add 1 ml dioleoyl-sn-glycerol (10 mg/ml) to 10 ml of L-α-phosphatidylcholine (1 mg/ml) and 10 ml of L-α-phosphatidyl-L-serine (1 mg/ml) in a thick glass recipient. Evaporate under nitrogen and put on ice for 15 minutes. Reconstitute in 10 ml Tris/HCl (10 mM, pH 7.4) by sonication on ice. The sonification process consists of sonification cycles of 10 seconds in the sonification bath followed by 10 seconds cool down on ice and repeating this sonification cycle till a homogeneous solution is obtained (takes about 15 minutes). The thus obtained micelles are stored at −20° C. till later use and contain DAG at a final concentration of 1.61 mM.
• 50 mM Tris-HCl (pH 7.4), 150 mM MgCl2, 1 mM EDTA, 0.2% BSA. b) N-ethylmaleimide, 5M • Dissolve 5 g into a final volume of 8 ml DMSO 100% and store at −20° C. in aliquots till later use. c) Substrate mix (for 1 384 well plate=3840 μl) • 612 μl micelles stock (51 μM final) • 16.6 μl oleoylCoA 9.7 mM • 23 μl [^3H]-oleoylCoA (49 Ci/mmol, 500 μCi/ml) • 3188.4 μl Tris pH 7.4, 10 mM d) Enzyme mix (for 1 384 well plate=3520 μl) (5 μg/ml) • Add 11.73 μl of DGAT membrane stock (1500 μg/ml stock) to 3508 μl assay buffer. e) Stop mix (for 1 384 well plate=7.68 ml) (250 mM) • Add 384 μl of N-ethylmaleimide (5M) to 3.456 ml DMSO 100%, and further dilute 3.84 ml of said solution with 3.84 ml DMSO 10%. Method
DGAT activity in membrane preparations was assayed in 50 mM Tris-HCl (pH 7.4), 150 mM MgCl2, 1 mM EDTA and 0.2% BSA, containing 50 μM DAG, […] PC/PS and 8.4 μM [^3H]-oleoylCoA (at a specific activity of 30 nCi/well) in a final volume of 50 μl in 384-well format using the red shifted Basic Image FlashPlate™ (Perkin Elmer Cat. No. SMP400).
In detail, 10 μl enzyme mix and 10 μl substrate mix were added to 30 μl of assay buffer, optionally in the presence of 1 μl DMSO (blank and controls) or 1 μl of the compound to be tested. This reaction mixture was incubated for 120 minutes at 37° C. and the enzymatic reaction stopped by adding 20 μl of the stop mix. The plates were sealed and the vesicles allowed to settle overnight at room temperature. Plates were centrifuged for 5 minutes at 1500 rpm and measured in Leadseeker. […]
By IC50 is commonly meant the concentration that gives 50% inhibition. A lower IC50 goes with inhibition by little substance. In turn, `Cc1cc(C)c(NC(=O)N2CCC(c3ccc(NC(=O)c4ccccc4-c4ccc(C(F)(F)F)cc4)cc3)CC2)c(Cl)c1` [Compound 117] showed an IC50 of 316 nM.
As for `CC(C)c1ccccc1NC(=O)N1CCC(c2ccc(NC(=O)c3ccccc3-c3ccc(C(F)(F)F)cc3)cc2)CC1` [Compound 109], the 50% inhibitory concentration (IC50) was 9550 nM.
In turn, `CC(C)c1ccc(-c2ccccc2C(=O)Nc2ccc(C3CCN(C(=O)Nc4c(Cl)cccc4Cl)CC3)cc2)cc1` [Compound 61] gave an IC50 of 427 nM.
Take `COC(=O)c1cccc(C(=O)Nc2ccc(N3CCN(C(=O)Cc4c(Cl)cc(CN5CCCC5)cc4Cl)CC3)cc2)c1` [Compound 145]: the IC50 was 112 nM.
Consider `O=C(Nc1ccc(N2CCN(C(=O)Nc3ccccc3[N+](=O)[O-])CC2)cc1)c1ccccc1-c1ccc(C(F)(F)F)cc1` [Compound 92], for which inhibition was half-maximal at 2340 nM (IC50).
Compound `O=C(Nc1ccc(N2CCN(C(=O)Nc3ccccc3Oc3ccccc3)CC2)cc1)c1ccccc1-c1ccc(C(F)(F)F)cc1` [Compound 105] had an IC50 of 3310 nM.
Take `Cc1ccc(C)n1-c1cccc(C(=O)Nc2ccc(N3CCN(C(=O)Nc4c(Cl)cccc4Cl)CC3)cc2)c1` [Compound 20]: the IC50 was 30.9 nM.
Compound `O=C(Nc1ccc(N2CCN(C(=O)Nc3c(Cl)cccc3Cl)CC2)cc1)c1ccc(-n2cccn2)cc1` [Compound 21] gave an IC50 of 8.91 nM.
With `Cc1cc(C)c(NC(=O)N2CCN(c3ccc(NC(=O)c4ccccc4-c4ccc(C(F)(F)F)cc4)cc3)CC2)c(Br)c1` [Compound 103], the half-inhibitory concentration (IC50) is 200 nM.
With `O=C(Nc1ccc(N2CCN(C(=O)NCc3ccccc3)CC2)cc1)c1ccccc1-c1ccc(C(F)(F)F)cc1` [Compound 70], the IC50 is 5500 nM.
In turn, `O=C(Nc1ccc(N2CCN(C(=O)Nc3c(F)cc(Br)cc3F)CC2)cc1)c1ccccc1-c1ccc(C(F)(F)F)cc1` [Compound 98] gave a half-inhibitory concentration (IC50) of 2630 nM.
`CC(C)(C)OC(=O)N1CCCC1C(=O)Nc1ccc(C2CCN(C(=O)Nc3c(Cl)cccc3Cl)CC2)cc1` (centres unmarked) [Compound 51] gave an IC50 of 490 nM.
The result for `O=C(Nc1ccc(N2CCN(C(=O)Nc3c(Cl)cccc3Cl)CC2)cc1)c1ccc(N2CCOCC2)cc1` [Compound 38] reads 11 nM; that for `CCc1ccccc1NC(=O)N1CCN(c2ccc(NC(=O)c3ccccc3-c3ccc(C(F)(F)F)cc3)cc2)CC1` [Compound 75], 2140 nM; that for `COc1cccc(OC)c1NC(=O)N1CCN(c2ccc(NC(=O)c3ccccc3-c3ccc(C(F)(F)F)cc3)cc2)CC1` [Compound 84], 5250 nM.
For the compound `O=C(Nc1ccc(N2CCN(C(=O)Nc3c(Cl)cccc3Cl)CC2)cc1)c1cccc(N2CCCC2=O)c1` [Compound 13], the half-maximal inhibitory concentration (IC50) is 11 nM.
`Cc1cc(Br)cc(C)c1NC(=O)N1CCC(c2ccc(NC(=O)c3ccccc3-c3ccc(C(F)(F)F)cc3)cc2)CC1` [Compound 115] showed a half-maximal inhibitory concentration (IC50) of 1950 nM.
`Cc1ccccc1NC(=O)N1CCC(c2ccc(NC(=O)c3ccccc3-c3ccc(C(F)(F)F)cc3)cc2)CC1` [Compound 7] had an IC50 of 3470 nM.
`O=C(Nc1ccc(C2CCN(C(=O)Nc3c(F)cc(F)cc3Br)CC2)cc1)c1ccccc1-c1ccc(C(F)(F)F)cc1` [Compound 114] had an IC50 of 1230 nM.
`O=C(Nc1ccc(N2CCN(C(=O)c3c(Cl)cccc3Cl)CC2)cc1)c1ccccc1-c1ccc(C(F)(F)F)cc1` [Compound 6] had an IC50 of 9120 nM.
In turn, `Cc1nc(-c2ccc(C(=O)Nc3ccc(N4CCN(C(=O)Nc5c(Cl)cccc5Cl)CC4)cc3)cc2)no1` [Compound 30] had an IC50 of 4.47 nM.
`CCCc1ccccc1NC(=O)N1CCN(c2ccc(NC(=O)c3ccccc3-c3ccc(C(F)(F)F)cc3)cc2)CC1` [Compound 76]: half-maximal inhibition (IC50) required 7590 nM.
The result for `Cc1cc(C)c(NC(=O)N2CCC(c3ccc(NC(=O)c4ccccc4-c4ccc(C(F)(F)F)cc4)cc3)CC2)c(C)c1` [Compound 112] reads 269 nM; that for `O=C(Nc1ccc(N2CCN(C(=S)Nc3ccc(Cl)cc3Cl)CC2)cc1)c1ccccc1-c1ccc(C(F)(F)F)cc1` [Compound 68], 7240 nM.
`Cc1ccc(C(=O)Nc2ccc(N3CCN(C(=O)Nc4c(Cl)cccc4Cl)CC3)cc2)c(-c2ccc(C(F)(F)F)cc2)c1` [Compound 66] showed an IC50 of 58.9 nM.
Turning to `CC(C)(C)OC(=O)N1CSCC1C(=O)Nc1ccc(C2CCN(C(=O)Nc3c(Cl)cccc3Cl)CC2)cc1` (centres unmarked) [Compound 50], the IC50 is 295 nM.
Compound `CCc1cccc(C)c1NC(=O)N1CCC(c2ccc(NC(=O)c3ccccc3-c3ccc(C(F)(F)F)cc3)cc2)CC1` [Compound 110] gave an IC50 of 955 nM.
The compound `Cc1cccc(Cl)c1NC(=O)N1CCN(c2ccc(NC(=O)c3ccccc3-c3ccc(C(F)(F)F)cc3)cc2)CC1` [Compound 94] gave an IC50 of 148 nM.
As to `CC(C)OC(=O)c1ccc(-c2cccc(C(=O)Nc3ccc(N4CCN(C(=O)Nc5c(Cl)cccc5Cl)CC4)cc3)c2)cc1` [Compound 127], inhibition was half-maximal at 25.1 nM (IC50).
The result for `O=C(Nc1ccc(C2=CCN(C(=O)NCc3ccccc3)CC2)cc1)c1ccccc1-c1ccc(C(F)(F)F)cc1` [Compound 121] reads 4900 nM; that for `O=C(Nc1ccc(N2CCN(C(=O)Nc3c(Cl)cccc3Cl)CC2)cc1)c1ccccc1-c1ccco1` [Compound 4], 24.5 nM; that for `Cc1nc(C(=O)Nc2ccc(C3CCN(C(=O)Nc4c(Cl)cccc4Cl)CC3)cc2)c(-c2cccc(C(F)(F)F)c2)s1` [Compound 53], 1480 nM.
`CCc1nc(C)c(-c2ccccc2C(=O)Nc2ccc(C3CCN(C(=O)Nc4c(Cl)cccc4Cl)CC3)cc2)s1` [Compound 55] had an IC50 of 26.3 nM.
The compound `O=C(Nc1ccc(N2CCN(C(=O)Nc3c(Cl)cccc3Cl)CC2)cc1)c1ccccc1-c1nc2ccccc2[nH]1` [Compound 45] had a 50% inhibitory concentration (IC50) of 56.2 nM.
`O=C(Nc1ccc(N2CCN(C(=O)Nc3c(F)cc(F)cc3Br)CC2)cc1)c1ccccc1-c1ccc(C(F)(F)F)cc1` [Compound 96] showed an IC50 of 525 nM.
The result for `O=C(Nc1ccc(N2CCN(C(=O)Nc3c(Cl)cccc3Cl)CC2)cc1)c1ccc(-n2cnnc2)cc1` [Compound 29] reads 776 nM; that for `CCOC(=O)c1ccccc1NC(=O)N1CCN(c2ccc(NC(=O)c3ccccc3-c3ccc(C(F)(F)F)cc3)cc2)CC1` [Compound 87], 7410 nM; that for `O=C(Nc1ccc(C2=CCN(C(=O)NCC3CCCCC3)CC2)cc1)c1ccccc1-c1ccc(C(F)(F)F)cc1` [Compound 120], 4270 nM.
